Some test systems named below: SK-MEL-5 melanoma; NCI-H522 lung; KM12 colon; DU-145 prostate; A498 renal; TK-10 renal; HOP-92 NSCLC; SK-OV-3 ovarian.
What all share (assay): inhibition of tumour cell growth, NCI panel, 48 h

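Compound exposure: 48 hours, 5 concentrations, 96-well plates. GI50 = concentration required for 50% inhibition of growth. TGI marks complete inhibition of growth.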

Regarding `O=C(c1ccccc1)c1nc2ccc(C(F)(F)F)cc2[n+]([O-])c1C(F)(F)F`, the GI50 in the assay with SK-MEL-5 melanoma is 17.5 µM; in the assay on NCI-H522 lung it was 24.7 µM; in the assay with KM12 colon it was 37.3 µM; in the assay on DU-145 prostate it was 71.9 µM; in the assay with A498 renal it was 13.2 µM; with TK-10 renal it was 37.5 µM. For the same molecule, the GI50 in the assay on HOP-92 NSCLC is 15.1 µM; in the assay on SK-OV-3 ovarian, 27.4 µM. Besides, the TGI is 48 µM with SK-MEL-5 melanoma; 79 µM with NCI-H522 lung; greater than 100 µM in the assay on KM12 colon; greater than 100 µM with DU-145 prostate; 45.2 µM in the assay on A498 renal; greater than 100 µM with TK-10 renal. Further, the TGI in the assay with HOP-92 NSCLC was 78.5 µM; in the assay on SK-OV-3 ovarian, greater than 100 µM.

For `C[C@H]1C(Oc2ccc(O)cc2)OC2OC3(C)CCC4[C@H](C)CCC1C24OO3` (some centres undefined), the GI50 in the assay on SK-MEL-5 melanoma was 13.2 µM; with NCI-H522 lung it was 11 µM; in the assay on KM12 colon it was 11.4 µM; with DU-145 prostate it was 20.1 µM; with A498 renal, 16.7 µM; in the assay on TK-10 renal it was 15.9 µM. Further, the results for the GI50 with HOP-92 NSCLC and in the assay on SK-OV-3 ovarian were 11.5 µM and 21.1 µM, respectively. Further, the TGI is 27.3 µM in the assay with SK-MEL-5 melanoma; 25.3 µM with NCI-H522 lung; greater than 82.1 µM in the assay on KM12 colon; 43.2 µM in the assay with DU-145 prostate; 31.2 µM in the assay on A498 renal; 37.8 µM in the assay with TK-10 renal. The results for the TGI in the assay with HOP-92 NSCLC and in the assay on SK-OV-3 ovarian were 25 µM and 47.8 µM, respectively.

`Cc1ccc(S(=O)(=O)Cc2nc(-c3ccc(C(=O)NCc4cccnc4)cc3)oc2C)cc1`: the GI50 with SK-MEL-5 melanoma is 2.85 µM; in the assay with NCI-H522 lung it was 1.33 µM; with KM12 colon it was 0.266 µM; in the assay on DU-145 prostate it was 0.0907 µM; in the assay with A498 renal it was greater than 100 µM; in the assay with TK-10 renal, greater than 67.8 µM. The GI50 in the assay with HOP-92 NSCLC was 13 µM; in the assay with SK-OV-3 ovarian it was 14.5 µM. Moreover, the TGI in the assay on SK-MEL-5 melanoma was greater than 100 µM; in the assay on NCI-H522 lung it was 27.7 µM; in the assay with KM12 colon, greater than 100 µM; with DU-145 prostate, greater than 100 µM; with A498 renal it was greater than 100 µM; in the assay with TK-10 renal, greater than 100 µM. Also, the TGI in the assay with HOP-92 NSCLC and with SK-OV-3 ovarian was greater than 100 µM in each case.

On to `CC(=O)OC1CC2C(C)(C)C(=O)C=CC2(C)C2CCC3(C)C(c4ccoc4)OC(=O)C4OC43C12C` (centres undefined), for which the TGI is 19.2 µM in the assay with SK-MEL-5 melanoma; 19.8 µM in the assay with NCI-H522 lung; 19.4 µM in the assay with KM12 colon; 11 µM in the assay with DU-145 prostate; greater than 100 µM in the assay on A498 renal; greater than 100 µM in the assay on TK-10 renal. The TGI in the assay on HOP-92 NSCLC was greater than 100 µM; in the assay on SK-OV-3 ovarian it was 48.7 µM.

With `CCC1CCc2nc3sc(C(=O)Nc4ccccc4C)c(N)c3cc2C1` (centres undefined), the GI50 was 0.301 µM in the assay on SK-MEL-5 melanoma; 0.775 µM with NCI-H522 lung; 0.502 µM in the assay on KM12 colon; 0.485 µM in the assay on DU-145 prostate; 0.313 µM with A498 renal; 0.833 µM in the assay with TK-10 renal. The GI50 is 0.637 µM in the assay with HOP-92 NSCLC and 0.855 µM with SK-OV-3 ovarian. The TGI in the assay with SK-MEL-5 melanoma, in the assay with NCI-H522 lung, in the assay with KM12 colon, with DU-145 prostate, with A498 renal and with TK-10 renal was greater than 100 µM each time. The TGI in the assay on HOP-92 NSCLC and with SK-OV-3 ovarian was greater than 100 µM in each case.

With `O=C1c2c(O)cc(O)cc2OC(c2ccc(O)cc2O)C1O` (centres undefined), the GI50 with SK-MEL-5 melanoma, in the assay with NCI-H522 lung, with A498 renal, with HOP-92 NSCLC and in the assay with SK-OV-3 ovarian was greater than 100 µM in each case. Besides, the TGI in the assay on SK-MEL-5 melanoma, in the assay with NCI-H522 lung, in the assay with KM12 colon, with DU-145 prostate, in the assay on A498 renal and with TK-10 renal was greater than 100 µM each time. In addition, the TGI in the assay on HOP-92 NSCLC and with SK-OV-3 ovarian was greater than 100 µM in each case.

For `COc1ccc(-c2csc(-c3cc(Cl)cc(Cl)c3Cl)n2)cc1`, the GI50 in the assay with SK-MEL-5 melanoma is 32.2 µM; in the assay on NCI-H522 lung it was greater than 100 µM; with KM12 colon, 48.1 µM; in the assay with DU-145 prostate, 63.9 µM; in the assay on A498 renal it was greater than 100 µM; in the assay with TK-10 renal, greater than 100 µM. Besides, the GI50 with HOP-92 NSCLC was 27.6 µM; in the assay with SK-OV-3 ovarian, 96.8 µM. In addition, the TGI with SK-MEL-5 melanoma, with NCI-H522 lung, in the assay on KM12 colon, in the assay on DU-145 prostate, in the assay on A498 renal and in the assay with TK-10 renal was greater than 100 µM throughout. Also, the TGI in the assay on HOP-92 NSCLC and in the assay on SK-OV-3 ovarian was greater than 100 µM throughout.

Take `CN(C[C@@H]1COCCO1)S(=O)(=O)Nc1ccc2ccc3ncc(-c4cnn(C)c4)cc3c(=O)c2c1`: the GI50 in the assay with SK-MEL-5 melanoma is 6.42 µM; with NCI-H522 lung, 3.71 µM; in the assay with KM12 colon, 0.369 µM; in the assay on DU-145 prostate it was 6.86 µM; with A498 renal, 0.447 µM; in the assay on TK-10 renal, 2.64 µM. Further, the GI50 in the assay with HOP-92 NSCLC is 2.25 µM; with SK-OV-3 ovarian it was 3.04 µM. For the same molecule, the TGI in the assay on SK-MEL-5 melanoma was greater than 100 µM; in the assay on NCI-H522 lung, greater than 31 µM; with KM12 colon it was greater than 100 µM; in the assay with DU-145 prostate, greater than 100 µM; in the assay on A498 renal, 2.18 µM; with TK-10 renal, greater than 100 µM. Besides, the TGI was greater than 30.3 µM with HOP-92 NSCLC and greater than 100 µM in the assay with SK-OV-3 ovarian.

In the case of `CCOC(=O)c1cc2c(n1Cc1ccccc1)-c1oncc1CC2`, the GI50 was 2.97 µM with SK-MEL-5 melanoma; 1.96 µM in the assay with NCI-H522 lung; 3.49 µM with KM12 colon; 11.4 µM in the assay with DU-145 prostate; 1.55 µM with A498 renal; 14.4 µM in the assay with TK-10 renal. The GI50 is 5.24 µM with HOP-92 NSCLC and 7.07 µM in the assay with SK-OV-3 ovarian. For the same molecule, the TGI in the assay on SK-MEL-5 melanoma was 12 µM; in the assay with NCI-H522 lung, 17.5 µM; with KM12 colon it was 27.6 µM; with DU-145 prostate, 44 µM; in the assay on A498 renal it was 7.5 µM; with TK-10 renal, greater than 100 µM. The TGI in the assay with HOP-92 NSCLC was determined as 42.7 µM; in the assay with SK-OV-3 ovarian it was 93.1 µM.

Take `N[C@@H]1CCCN(c2c(/C=C3\SC(=O)NC3=O)cccc2-c2ccccc2)C1`: the GI50 is 11.2 µM in the assay on SK-MEL-5 melanoma; 11.5 µM in the assay on NCI-H522 lung; 14.2 µM in the assay on KM12 colon; 13.7 µM in the assay with DU-145 prostate; 1.5 µM with A498 renal; 13.6 µM with TK-10 renal. In addition, the GI50 is 3.17 µM with HOP-92 NSCLC and 15.5 µM in the assay on SK-OV-3 ovarian. Besides, the TGI came out at 23.6 µM in the assay on SK-MEL-5 melanoma; 25.3 µM with NCI-H522 lung; 28.9 µM in the assay with KM12 colon; 28.1 µM in the assay with DU-145 prostate; 18.8 µM in the assay with A498 renal; 26.8 µM with TK-10 renal. The TGI came to 20.1 µM with HOP-92 NSCLC and 35 µM in the assay with SK-OV-3 ovarian.

The record behind these values is PubChem BioAssay (NCI).
